Results as given in ChEMBL document CHEMBL1201862, “PubChem BioAssay data set” (2004).
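Exposure lasted 48 hours, with cells grown in 96-well plates and compounds tested at five concentrations. GI50 is the concentration that inhibits growth by half.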 Active and inactive are the calls of the source. Rule as the data show it: active = GI50 up to about 1.1 µM and inactive = higher.

Tests used:
Assay in all cases: NCI-60 cell line screen, 48 h
[1] = tested on: 786-0
[2] = tested on: CAKI-1
[3] = tested on: CCRF-CEM
[4] = tested on: HCC 2998
[5] = tested on: HCT-15
[6] = tested on: KM12
[7] = tested on: M14
[8] = tested on: NCI/ADR-RES
[9] = tested on: OVCAR-8
[10] = tested on: RPMI-8226
[11] = tested on: RXF 393
[12] = tested on: SF-539
[13] = tested on: SK-MEL-2
[14] = tested on: SK-MEL-5
[15] = tested on: SN12C
[16] = tested on: SR
[17] = tested on: TK-10
[18] = tested on: U-251
[19] = tested on: UACC-62
[20] = tested on: UO-31

C[C@@]12C[C@@H](c3ccccc3O1)N1CCCSC1=N2
GI50 [1]: > 100 µM (inactive)
GI50 [2]: > 100 µM (inactive)
GI50 [3]: > 100 µM (inactive)
GI50 [4]: > 100 µM (inactive)
GI50 [5]: > 100 µM
GI50 [6]: > 100 µM (inactive)
GI50 [7]: > 100 µM (inactive)
GI50 [8]: > 100 µM (inactive)
GI50 [9]: > 100 µM (inactive)
GI50 [10]: > 100 µM (inactive)
GI50 [11]: > 100 µM (inactive)
GI50 [12]: > 100 µM (inactive)
GI50 [13]: > 100 µM (inactive)
GI50 [14]: > 100 µM (inactive)
GI50 [15]: > 100 µM (inactive)
GI50 [16]: > 100 µM (inactive)
GI50 [17]: > 100 µM (inactive)
GI50 [18]: > 100 µM (inactive)
GI50 [19]: > 100 µM (inactive)
GI50 [20]: > 100 µM (inactive)

Brc1ccc2[nH]cc(-c3csc(-c4c[nH]c5ccc(Br)cc45)n3)c2c1
GI50 [1]: 1.8 µM (inactive)
GI50 [2]: 1.95 µM (inactive)
GI50 [3]: 1.92 µM (inactive)
GI50 [4]: 1.86 µM (inactive)
GI50 [5]: 2.02 µM
GI50 [6]: 1.47 µM (inactive)
GI50 [7]: 1.53 µM (inactive)
GI50 [8]: 2.21 µM (inactive)
GI50 [9]: 2.45 µM (inactive)
GI50 [10]: 1.64 µM (inactive)
GI50 [11]: 2.14 µM (inactive)
GI50 [12]: 1.56 µM (inactive)
GI50 [13]: 1.9 µM (inactive)
GI50 [14]: 1.64 µM (inactive)
GI50 [15]: 2.83 µM (inactive)
GI50 [16]: 1.63 µM (inactive)
GI50 [17]: 2.69 µM (inactive)
GI50 [18]: 1.82 µM (inactive)
GI50 [19]: 1.85 µM (inactive)
GI50 [20]: 2.42 µM (inactive)

CN1CCN(c2c(Cl)cc(Cl)c3[nH]c4ccccc4c(=O)c23)CC1
GI50 [1]: 5.75 µM (inactive)
GI50 [2]: 5.68 µM (inactive)
GI50 [3]: 0.67 µM (active)
GI50 [4]: 5.66 µM (inactive)
GI50 [5]: 3.39 µM
GI50 [6]: 6.11 µM (inactive)
GI50 [7]: 6.01 µM (inactive)
GI50 [8]: 7.35 µM (inactive)
GI50 [9]: 5.07 µM (inactive)
GI50 [10]: 3.1 µM (inactive)
GI50 [11]: 12.6 µM (inactive)
GI50 [12]: 3.94 µM (inactive)
GI50 [13]: 12.2 µM (inactive)
GI50 [14]: 9.71 µM (inactive)
GI50 [15]: 6.12 µM (inactive)
GI50 [16]: 0.301 µM (active)
GI50 [17]: 10.6 µM (inactive)
GI50 [18]: 5.82 µM (inactive)
GI50 [19]: 4.68 µM (inactive)
GI50 [20]: 4.29 µM (inactive)

C=CCSC1=N/C(=C\c2ccccc2)C(=O)N1CC=C
GI50 [1]: 31.7 µM (inactive)
GI50 [2]: 60.5 µM (inactive)
GI50 [3]: 22.9 µM (inactive)
GI50 [4]: 28.9 µM (inactive)
GI50 [5]: 35.2 µM
GI50 [6]: 38.8 µM (inactive)
GI50 [7]: 67.9 µM (inactive)
GI50 [8]: 45.1 µM (inactive)
GI50 [9]: 32.7 µM (inactive)
GI50 [10]: 24.7 µM (inactive)
GI50 [11]: 20.2 µM (inactive)
GI50 [12]: 84.1 µM (inactive)
GI50 [13]: 29.6 µM (inactive)
GI50 [14]: 17.8 µM (inactive)
GI50 [15]: 36.2 µM (inactive)
GI50 [16]: 22.7 µM (inactive)
GI50 [17]: > 74.6 µM (inactive)
GI50 [18]: 37.7 µM (inactive)
GI50 [19]: 33.3 µM (inactive)
GI50 [20]: 40.5 µM (inactive)

Cc1cccc2c(N)c3cccc(C(=O)NCCCNCCN)c3nc12
GI50 [1]: 1.71 µM (inactive)
GI50 [2]: 7.91 µM (inactive)
GI50 [3]: 1.46 µM (inactive)
GI50 [4]: 4.35 µM (inactive)
GI50 [5]: 28.3 µM
GI50 [6]: 4.8 µM (inactive)
GI50 [7]: 14.1 µM (inactive)
GI50 [8]: 25.9 µM (inactive)
GI50 [9]: 5.32 µM (inactive)
GI50 [10]: 7.08 µM (inactive)
GI50 [11]: 3.4 µM (inactive)
GI50 [12]: 2.17 µM (inactive)
GI50 [13]: 16.3 µM (inactive)
GI50 [14]: 7.11 µM (inactive)
GI50 [15]: 0.121 µM (active)
GI50 [16]: 2.04 µM (inactive)
GI50 [17]: 17.1 µM (inactive)
GI50 [18]: 1.3 µM (inactive)
GI50 [19]: 4.38 µM (inactive)
GI50 [20]: 19 µM (inactive)
